The target of one test is T1, recombinant human ACSS2 (Homo sapiens, UniProt Q9NR19).
T1 construct: purchased Origene TP304260
Briefly: ACSS2 biochemical assay (Transcreener AMP assay). The conditions noted are these: in vitro biochemical TranScreener assay; mean±S.D., n≥3 (FIG. 1C). The method, then:
ACSS2 enzyme activity was measured using the TRANSCREENER® TRF AMP/GMP assay (Bellbrook Labs). Recombinant ACSS2 was purchased from Origene. The assay was performed in white, opaque, low volume 384 well plates. Test compounds were diluted in 100% DMSO and then 100 nL of each dilution was transferred using the Janus MDT Nanohead to assay plates containing 3 μL ACSS2 (2.5 nM) in assay buffer (30 mM HEPES, pH 7.4, 140 mM NaCl, 2 mM MgCl2, 5 mM sodium acetate, 2 mM DTT, 0.005% Brij35). Three microliters of substrate mix containing 100 μM ATP and 10 μM coenzyme A was added to the plates followed by a 120 min incubation. The final concentrations of enzyme and substrates in the reaction mix was 1.25 nM ACSS2, 50 μM ATP, and 5 μM coenzyme A. After incubation, 3 μL of terbium conjugated AMP antibody and AMP tracer was added to the plates according to the methods described by BellBrook Labs. After an additional 30 min, the HTRF signal was measured using an Envision Plate reader. Data were normalized to % inhibition, where 100% inhibition is equal to the counts obtained in the absence of ACSS2, and 0% inhibition is equal to the counts obtained in the complete reaction including a DMSO control.
A robust biochemical screening assay was set up for testing compounds as potential ACSS2 inhibitors. […]

For the next test, the system named is MDA-MB-468 cells. Description: 13C2-acetate tracing in MDA-MB-468 cells. Particulars: MDA-MB-468 cells (FIG. 11D). The format is cell-based, human. The method, then:
All metabolomic experiments were performed in serum-like modified Eagle's medium (SMEM). SMEM contains 54 different nutrients that are found in the bloodstream at concentrations that are physiologically relevant to humans. SMEM was supplemented with 10% or 1% fetal bovine serum (FBS; Life Technologies). Cells were grown in normoxia (atmospheric oxygen) or hypoxia (1% oxygen) while being incubated in uniformly labeled ^13C2-acetate (0.100 mM; Cambridge Isotope Laboratories). Lengths of incubation are described in the figure legends. For extraction of metabolites from cultured cells, SMEM medium was aspirated and cells were washed once in ice-cold PBS. Metabolites were extracted by adding a solution of LC-MS grade methanol/acetonitrile/water (5:3:2) to the well. […]
LC-MS analysis was performed on a Q Exactive Hybrid Quadrupole-Orbitrap HF-X MS (ThermoFisher Scientific) equipped with a HESI II probe and coupled to a Vanquish Horizon UHPLC system (ThermoFisher Scientific). […] Samples were analyzed in full MS scan with polarity switching at scan range 65 to 975 m/z; 120,000 resolution; automated gain control (AGC) target of 1E6; and maximum injection time (max IT) of 100 milliseconds. Identification and quantitation of metabolites was performed using an annotated compound library and TraceFinder 4.1 software. […]

The subject of the next test is BT474 cells. Description: RNA sequencing of BT474 cells under hypoxia and low lipid stress. The format is cell-based, human. Particulars: H1, RNA sequencing. As to the method: ACSS2 affects histone and transcription factor acetylation in the nucleus of cells which then affects gene transcription. It was thus tested if inhibition of ACSS2 affects hypoxia and lipid depletion induced transcriptional stress responses. BT474 cells were incubated in normoxic, nutrient replete conditions (N10) and in hypoxic, low lipid conditions (H1). […] Additional analysis also found significant upregulation of 30 genes related to fatty acid synthesis (FIG. 3D).
It was then compared how many of the 1075 hypoxia and low lipid stress responsive genes were affected by siRNA mediated knockdown of ACSS2 (siACSS2) and VY-3-135 treatment.

T1 sequence (Q9NR19 whole entry): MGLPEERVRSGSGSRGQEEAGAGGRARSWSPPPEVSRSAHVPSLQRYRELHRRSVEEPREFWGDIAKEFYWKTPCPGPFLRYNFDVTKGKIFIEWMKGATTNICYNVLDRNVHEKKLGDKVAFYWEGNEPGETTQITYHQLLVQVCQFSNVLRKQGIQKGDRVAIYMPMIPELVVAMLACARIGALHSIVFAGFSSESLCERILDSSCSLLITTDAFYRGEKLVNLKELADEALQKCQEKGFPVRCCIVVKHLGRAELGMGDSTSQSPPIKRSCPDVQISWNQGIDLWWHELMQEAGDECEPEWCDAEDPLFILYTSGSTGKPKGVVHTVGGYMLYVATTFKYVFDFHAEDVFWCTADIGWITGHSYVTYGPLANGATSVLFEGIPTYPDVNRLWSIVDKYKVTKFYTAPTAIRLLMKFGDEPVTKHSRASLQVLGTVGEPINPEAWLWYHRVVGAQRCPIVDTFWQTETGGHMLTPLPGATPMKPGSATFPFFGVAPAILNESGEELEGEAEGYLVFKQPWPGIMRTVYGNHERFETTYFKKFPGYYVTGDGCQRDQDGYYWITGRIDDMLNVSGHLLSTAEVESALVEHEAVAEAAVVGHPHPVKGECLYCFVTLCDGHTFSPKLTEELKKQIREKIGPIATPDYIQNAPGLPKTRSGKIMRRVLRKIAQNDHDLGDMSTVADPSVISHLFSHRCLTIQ

On to `CCn1c(C(O)(c2ccccc2)c2ccccc2)nc2ccc(C(=O)NC[C@@H](C)O)cc21` [VY-3-135, (R)-1-ethyl-2-(hydroxydiphenylmethyl)-N-(2-hydroxypropyl)-1H-benzo[d]imidazole-6-carboxamide], for which the IC50 at recombinant human ACSS2 is 0.044 ± 0.00385 µM. For the same compound, the “incorporation of 13C2-acetate into UDP-GlcNAc” value in the test on MDA-MB-468 cells was “able to block incorporation of ^13C2-acetate into UDP-GlcNAc to nearly the levels of unlabeled cells”. Further, in the test with BT474 cells, the “transcriptional regulation of genes in response to hypoxia and low lipid stress” value is “has a minimal effect on the transcriptional regulation of genes in response to hypoxia and low lipid stress”.

Broadly, the IC50 is the concentration needed to halve the response being measured.

The record behind these values is patent US12281084B2, “Acetyl-CoA synthetase 2 (ACSS2) inhibitors and methods using same” (The Wistar Institute, priority 2019, dated 2025).
